Measured values published in patent EP0758883B1, “FUSOGENIC LIPOSOMES AND METHODS OF MAKING AND USING SAME” (THE LIPOSOME COMPANY, INC., priority 1994, dated 1995).

Columns and labels:
[1] = TNS fluorescence titration for ionizable lipid pKa in liposomal bilayers; conditions: aminolipid incorporated into liposomes; for % Charged at pH 7.5: from TNS fluorescence titrations
[2] = Lipid-mixing fusion assay (RET fluorescent probe dilution), EPC/DOPE/Chol liposomes; conditions: for fusogenic capacity (fusion rate): 5 mole % of each aminolipid in EPC/DOPE/Chol (35:20:45) liposomes, Figure 9, in words
Procedure: (§1) Fusion was monitored by the decrease in resonance energy transfer (RET) resulting from fluorescent probe dilution, as described by Struck et al. (1981). […] The external buffer was 20 mM HEPES (150 mM NaCl, pH 7.5). […] Labeled and unlabeled liposomes were mixed in a 1:3 ratio, and diluted to 0.2 mM total lipid. External buffer was exchanged for 300 mM sucrose, 1 mM citrate, pH 4.0, on Sephadex G-25 columns before diluting preparations to 10 mM lipid. For fusion assays, 20 µl of fluorescently labeled liposomes, and 60 µl unlabeled liposomes, were added to 3.92 ml of 20 mM HEPES, 150 mM NaCl, pH 7.5. After 5 min. of incubation at room temperature, a 3 ml aliquot was added to a cuvette, and the fluorescence was monitored over 5 minutes. Excitation and emission wavelengths were 465 and 535 nm, respectively, and an emission 530 nm cutoff filter was used. To dissipate the gradient and induce fusion, ammonium acetate was added to a final concentration of 100 mM at 30 seconds. The percent change in fluorescence (% F/ Fmax) was determined by assigning zero fluorescence (F0) to a trace with no ammonium acetate added and Fmax to a trace measured after adding 100 µl of 25 mM Triton X-100, so that: % ( F/ Fmax ) = 100 x ((F-F0 )/(Fmax -F0 )) [formula]
To study the effect of aminolipid structure on the fusion of EPC/Chol/DOPE liposomes (35:20:45) liposomes were prepared with 5 mole % of the indicated aminolipid (AL-1-AL-6), an internal pH 4.0, 300 mM sodium citrate buffer, and an external 20 mM HEPES buffer (150 mM NaCl, pH 7.5). Fusion assays were carried out as described above.
(§2) Membrane fusion was monitored by a loss in RET between the fluorescently labeled lipids NBD-PE and Rh-PE. When liposomes containing both of these labels fuse with unlabeled liposomes, the resulting dilution of the fluorescent probes gives Increased fluorescence for NBD-PE.

[3] = Lipid-mixing fusion assay (RET fluorescent probe dilution), EPC/Chol liposomes; conditions: plateau after dissipation of the pH gradient with 100 mM ammonium acetate, complete mixing would give 80%
Procedure: as §1, with “To dissipate the gradient and induce fusion, ammonium acetate was added to a final concentration of 100 mM at 30 seconds.” left out, “[formula] […]” for “[formula]”
as §2

[4] = Lipid asymmetry (transbilayer distribution) by TNS fluorescence; type: physicochemical; conditions: 10 mole % in EPC/Chol (55:45), internal pH 4, external pH 7.5; after four minutes

SMILES	fraction of neutral species at pH 7.5 [1] [%]	% Charged at pH 7.5 [1] [%]	aminolipid moved to the inner monolayer [4]	ΔF/ΔFmax ([2]; 10 mole % AL-1 in EPC/DOPE/Chol (30:25:45), over 5 minutes after dissipation of the pH gradient) [%]	ΔF/ΔFmax ([2]; 10 mole % AL-1 in EPC/DOPE/Chol (35:20:45), after 5 minutes)	ΔF/ΔFmax ([2]; about 5 mole % AL-1 in EPC/DOPE/Chol (35:20:45), over the first 5 minutes after dissipation of the pH gradient)	ΔF/ΔFmax ([3]; 10 mole % AL-1 in EPC/Chol (55:45)) [%]	ΔF/ΔFmax ([3]; 20 mole % AL-1 in EPC/Chol (55:45)) [%]	fusogenic capacity (fusion rate) [2]
CCCCCCCC/C=C\CCCCCCCC(=O)OCC(CN(C)C)OC(=O)CCCCCCC/C=C\CCCCCCCC (racemic) [AL-1, 1-N,N-dimethylamino dioleoyl propane]	11	11	virtually all	~10	over 5%	greater than 10%	~3	~3	–
CCCCCCCC/C=C\CCCCCCCC(=O)OCC(O)CN(C)C (racemic) [AL-2, ±-1-oleoyl-2-hydroxy-3-N,N-dimethylamino propane]	–	54	–	–	–	–	–	–	little Increase in liposome fusion
CCCCCCCC/C=C\CCCCCCCC(=O)OCC(CN(C)C)OC(=O)CCC (racemic) [AL-4]	–	13	–	–	–	–	–	–	further increases in the fusion rate

The next lines start with results.

fraction of neutral species at pH 7.5 [1] [%]	% Charged at pH 7.5 [1] [%]	aminolipid moved to the inner monolayer [4]	SMILES	ΔF/ΔFmax ([2]; 10 mole % AL-1 in EPC/DOPE/Chol (30:25:45), over 5 minutes after dissipation of the pH gradient) [%]	ΔF/ΔFmax ([2]; 10 mole % AL-1 in EPC/DOPE/Chol (35:20:45), after 5 minutes)	ΔF/ΔFmax ([2]; about 5 mole % AL-1 in EPC/DOPE/Chol (35:20:45), over the first 5 minutes after dissipation of the pH gradient)	ΔF/ΔFmax ([3]; 10 mole % AL-1 in EPC/Chol (55:45)) [%]	ΔF/ΔFmax ([3]; 20 mole % AL-1 in EPC/Chol (55:45)) [%]	fusogenic capacity (fusion rate) [2]
16	16	–	CCCCCCCC/C=C\CCCCCCCC(=O)OCC(CN(C)C)OC(C)=O (racemic) [AL-3]	–	–	–	–	–	substantially greater fusion rate
–	14	–	CCCCCCCC/C=C\CCCCCCCC(=O)OCC(CN(C)C)OC(=O)CCCCCCCCC (racemic) [AL-5]	–	–	–	–	–	further increases in the fusion rate
–	17	–	CCCCCCCCCC(=O)OCC(CN(C)C)OC(=O)CCCCCCCCC (racemic) [AL-6, ±-1,2-didecanoyl-1-N,N-dimethylamino propane]	–	–	–	–	–	only limited mixing
